Reference: patent EP0603240B1, “SAFENING HERBICIDAL PYRAZOLYLSULFONYLUREAS” (priority 1991, dated 1993)
Where two headings read alike, the source gives them in different places.

Columns and labels:
Format in all cases: in vivo
[1] = test system: Giant foxtail (Setaria fabergi); test: Example 24, Procedure II: Herbicide No. 1 + co-herbicides Nos. 4, 6, 7, 12 with Antidote Nos. 15 and 17-21; conditions: Setaria
How it was run: (§1)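 Greenhouse pots, herbicide No. 1 plus co-herbicides and antidote in acetone incorporated into silt loam soil covering the corn seed bed, with giant foxtail and velvetleaf; initial overhead irrigation equal to 0.6 cm rainfall, then sub-irrigation. Antidote at 2.24 kg/ha; percent injury read 13 days after application, duplicate average.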

[2] = test system: velvetleaf (Abutilon theophrasti); test: as above; conditions: Abutilon theophrasti
How it was run: as §1

[3] = test system: corn; test: as above; conditions: Zea mays
How it was run: as §1

[4] = test system: barnyardgrass (Echinochloa crusgalli); test: Example 11, Procedure II: Herbicide No. 1 + metazachlor (No. 14) with antidotes; conditions: no antidote
Experimental: Containers were filled and compacted with a fumigated silt loam top soil to a depth of about 1.3 cm from the top of the container. A first container was designated as an untreated control, a second container was designated as a herbicide control, and a third container was designated as a herbicide + antidote test container. Each of the containers was seeded with a crop species. A measured amount of herbicide dispersed or dissolved in acetone was applied to a measured quantity of soil. To this same quantity of soil treated with herbicide, there was added a measured amount of antidote dispersed or dissolved in acetone. The quantity of soil treated with the herbicide and antidote was thoroughly mixed to incorporate the herbicide and antidote in the soil uniformly. The seed bed in the third container of soil was covered with the soil treated with the herbicide and antidote and the container was leveled. For each test series, the seed beds of the first and second containers were likewise covered by soil layers. the cover layer of the first container was not treated with herbicide or antidote.
The containers were then placed on a bench in a greenhouse and sub-irrigated as required for the duration of the test. […] Plant response is measured in terms of percent injury. Antidote efficacy is indicated as the difference in plant injury by the herbicide(s) without the antidote and with the antidote.
This procedure is the same as Procedure I, but modified in the manner that after incorporation of the chemicals (herbicide and antidote) the containers with the covered seedbed were treated with an initial overhead irrigation equivalent to 0.6 cm rainfall, then subsequently sub-irrigated as required on greenhouse benches.
In the series of greenhouse tests described below, for routine screening purposes the herbicide/antidote compositions were tested in crop/weed combinations involving corn as the crop and either or both of the weeds barnyardgrass (Echinochloa crusgalli), a monocotyledonous weed, and velvetleaf (Abutilon theophrasti), a dicotyledonous weed. In the tables below, these weeds are indicated by the symbols "BYG" and "VL", respectively.
In this example, yet another α-chloroacetanilide co-herbicide, metazachlor (Herbicide No. 14) was combined with Herbicide No. 1 for investigation of the effect of various safeners on that composition. Metazachlor is the active ingredient in the commercial herbicide BUTISAN® S, used here as a 500 g/L formulation.

[5] = test system: velvetleaf (Abutilon theophrasti); test: Example 7, Procedure II: Herbicide No. 1 + metolachlor (No. 12) with antidotes
How it was run: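 Herbicide and antidote in acetone were mixed into silt loam soil used to cover seeded beds, followed by 0.6 cm overhead irrigation, then sub-irrigation in the greenhouse. Percent injury was scored against herbicide-alone and untreated controls, averaged over duplicates. Herbicide No. 1 was combined with metolachlor.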

COC(=O)c1c(Cl)nn(C)c1S(=O)(=O)NC(=O)Nc1nc(OC)cc(OC)n1 [Herbicide No. 1]
inhibition at 1120 g/ha ([1]; read-out: % Inhibition GFT, Herb. No. 1 0.07 Kg/ha + Co-Herb. No. 4 1.12 Kg/ha, no antidote): 70% | inhibition at 140 g/ha ([1]; read-out: % Inhibition GFT, Herb. No. 1 0.07 Kg/ha + Co-Herb. No. 6 0.14 Kg/ha, no antidote): 100% | inhibition at 280 g/ha ([1]; read-out: % Inhibition GFT, Herb. No. 1 0.07 Kg/ha + Co-Herb. No. 7 0.28 Kg/ha, no antidote): 100% | inhibition at 280 g/ha ([1]; read-out: % Inhibition GFT, Herb. No. 1 0.07 Kg/ha + Co-Herb. No. 12 0.28 Kg/ha, no antidote): 99% | inhibition at 1120 g/ha ([1]; read-out: % Inhibition GFT, Herb. No. 1 0.14 Kg/ha + Co-Herb. No. 4 1.12 Kg/ha, no antidote): 80% | inhibition at 140 g/ha ([1]; read-out: % Inhibition GFT, Herb. No. 1 0.14 Kg/ha + Co-Herb. No. 6 0.14 Kg/ha, no antidote): 100% | inhibition at 280 g/ha ([1]; read-out: % Inhibition GFT, Herb. No. 1 0.14 Kg/ha + Co-Herb. No. 7 0.28 Kg/ha, no antidote): 100% | inhibition at 280 g/ha ([1]; read-out: % Inhibition GFT, Herb. No. 1 0.14 Kg/ha + Co-Herb. No. 12 0.28 Kg/ha, no antidote): 99% | inhibition at 1120 g/ha ([1]; read-out: % Inhibition GFT, Herb. No. 1 0.28 Kg/ha + Co-Herb. No. 4 1.12 Kg/ha, no antidote): 85% | inhibition at 140 g/ha ([1]; read-out: % Inhibition GFT, Herb. No. 1 0.28 Kg/ha + Co-Herb. No. 6 0.14 Kg/ha, no antidote): 100% | inhibition at 280 g/ha ([1]; read-out: % Inhibition GFT, Herb. No. 1 0.28 Kg/ha + Co-Herb. No. 7 0.28 Kg/ha, no antidote): 100% | inhibition at 280 g/ha ([1]; read-out: % Inhibition GFT, Herb. No. 1 0.28 Kg/ha + Co-Herb. No. 12 0.28 Kg/ha, no antidote): 99% | inhibition at 1120 g/ha ([1]; read-out: % Inhibition GFT, Herb. No. 1 0.56 Kg/ha + Co-Herb. No. 4 1.12 Kg/ha, no antidote): 75% | inhibition at 140 g/ha ([1]; read-out: % Inhibition GFT, Herb. No. 1 0.56 Kg/ha + Co-Herb. No. 6 0.14 Kg/ha, no antidote): 100% | inhibition at 280 g/ha ([1]; read-out: % Inhibition GFT, Herb. No. 1 0.56 Kg/ha + Co-Herb. No. 7 0.28 Kg/ha, no antidote): 99% | inhibition at 280 g/ha ([1]; read-out: % Inhibition GFT, Herb. No. 1 0.56 Kg/ha + Co-Herb. No. 12 0.28 Kg/ha, no antidote): 99% | inhibition at 1120 g/ha ([2]; read-out: % Inhibition VL, Herb. No. 1 0.07 Kg/ha + Co-Herb. No. 4 1.12 Kg/ha, no antidote): 90% | inhibition at 140 g/ha ([2]; read-out: % Inhibition VL, Herb. No. 1 0.07 Kg/ha + Co-Herb. No. 6 0.14 Kg/ha, no antidote): 85% | inhibition at 280 g/ha ([2]; read-out: % Inhibition VL, Herb. No. 1 0.07 Kg/ha + Co-Herb. No. 7 0.28 Kg/ha, no antidote): 90% | inhibition at 280 g/ha ([2]; read-out: % Inhibition VL, Herb. No. 1 0.07 Kg/ha + Co-Herb. No. 12 0.28 Kg/ha, no antidote): 85% | inhibition at 1120 g/ha ([2]; read-out: % Inhibition VL, Herb. No. 1 0.14 Kg/ha + Co-Herb. No. 4 1.12 Kg/ha, no antidote): 90% | inhibition at 140 g/ha ([2]; read-out: % Inhibition VL, Herb. No. 1 0.14 Kg/ha + Co-Herb. No. 6 0.14 Kg/ha, no antidote): 95% | inhibition at 280 g/ha ([2]; read-out: % Inhibition VL, Herb. No. 1 0.14 Kg/ha + Co-Herb. No. 7 0.28 Kg/ha, no antidote): 90% | inhibition at 280 g/ha ([2]; read-out: % Inhibition VL, Herb. No. 1 0.14 Kg/ha + Co-Herb. No. 12 0.28 Kg/ha, no antidote): 90% | inhibition at 1120 g/ha ([2]; read-out: % Inhibition VL, Herb. No. 1 0.28 Kg/ha + Co-Herb. No. 4 1.12 Kg/ha, no antidote): 95% | inhibition at 140 g/ha ([2]; read-out: % Inhibition VL, Herb. No. 1 0.28 Kg/ha + Co-Herb. No. 6 0.14 Kg/ha, no antidote): 95% | inhibition at 280 g/ha ([2]; read-out: % Inhibition VL, Herb. No. 1 0.28 Kg/ha + Co-Herb. No. 7 0.28 Kg/ha, no antidote): 95% | inhibition at 280 g/ha ([2]; read-out: % Inhibition VL, Herb. No. 1 0.28 Kg/ha + Co-Herb. No. 12 0.28 Kg/ha, no antidote): 95% | inhibition at 1120 g/ha ([2]; read-out: % Inhibition VL, Herb. No. 1 0.56 Kg/ha + Co-Herb. No. 4 1.12 Kg/ha, no antidote): 90% | inhibition at 140 g/ha ([2]; read-out: % Inhibition VL, Herb. No. 1 0.56 Kg/ha + Co-Herb. No. 6 0.14 Kg/ha, no antidote): 95% | inhibition at 280 g/ha ([2]; read-out: % Inhibition VL, Herb. No. 1 0.56 Kg/ha + Co-Herb. No. 7 0.28 Kg/ha, no antidote): 95% | inhibition at 280 g/ha ([2]; read-out: % Inhibition VL, Herb. No. 1 0.56 Kg/ha + Co-Herb. No. 12 0.28 Kg/ha, no antidote): 90% | inhibition at 1120 g/ha ([3]; read-out: % Inhibition Corn, Herb. No. 1 0.07 Kg/ha + Co-Herb. No. 4 1.12 Kg/ha, no antidote): 10% | inhibition at 140 g/ha ([3]; read-out: % Inhibition Corn, Herb. No. 1 0.07 Kg/ha + Co-Herb. No. 6 0.14 Kg/ha, no antidote): 5% | inhibition at 280 g/ha ([3]; read-out: % Inhibition Corn, Herb. No. 1 0.07 Kg/ha + Co-Herb. No. 7 0.28 Kg/ha, no antidote): 5% | inhibition at 280 g/ha ([3]; read-out: % Inhibition Corn, Herb. No. 1 0.07 Kg/ha + Co-Herb. No. 12 0.28 Kg/ha, no antidote): 5% | inhibition at 1120 g/ha ([3]; read-out: % Inhibition Corn, Herb. No. 1 0.14 Kg/ha + Co-Herb. No. 4 1.12 Kg/ha, no antidote): 20% | inhibition at 140 g/ha ([3]; read-out: % Inhibition Corn, Herb. No. 1 0.14 Kg/ha + Co-Herb. No. 6 0.14 Kg/ha, no antidote): 20% | inhibition at 280 g/ha ([3]; read-out: % Inhibition Corn, Herb. No. 1 0.14 Kg/ha + Co-Herb. No. 7 0.28 Kg/ha, no antidote): 15% | inhibition at 280 g/ha ([3]; read-out: % Inhibition Corn, Herb. No. 1 0.14 Kg/ha + Co-Herb. No. 12 0.28 Kg/ha, no antidote): 10% | inhibition at 1120 g/ha ([3]; read-out: % Inhibition Corn, Herb. No. 1 0.28 Kg/ha + Co-Herb. No. 4 1.12 Kg/ha, no antidote): 25% | inhibition at 140 g/ha ([3]; read-out: % Inhibition Corn, Herb. No. 1 0.28 Kg/ha + Co-Herb. No. 6 0.14 Kg/ha, no antidote): 25% | inhibition at 280 g/ha ([3]; read-out: % Inhibition Corn, Herb. No. 1 0.28 Kg/ha + Co-Herb. No. 7 0.28 Kg/ha, no antidote): 30% | inhibition at 280 g/ha ([3]; read-out: % Inhibition Corn, Herb. No. 1 0.28 Kg/ha + Co-Herb. No. 12 0.28 Kg/ha, no antidote): 30% | inhibition at 1120 g/ha ([3]; read-out: % Inhibition Corn, Herb. No. 1 0.56 Kg/ha + Co-Herb. No. 4 1.12 Kg/ha, no antidote): 40% | inhibition at 140 g/ha ([3]; read-out: % Inhibition Corn, Herb. No. 1 0.56 Kg/ha + Co-Herb. No. 6 0.14 Kg/ha, no antidote): 40% | inhibition at 280 g/ha ([3]; read-out: % Inhibition Corn, Herb. No. 1 0.56 Kg/ha + Co-Herb. No. 7 0.28 Kg/ha, no antidote): 45% | inhibition at 280 g/ha ([3]; read-out: % Inhibition Corn, Herb. No. 1 0.56 Kg/ha + Co-Herb. No. 12 0.28 Kg/ha, no antidote): 45% | % Injury BYG ([4]; Herbicide No.1 0.56 kg/ha alone): 75% | % Injury BYG ([4]; Herbicide No.1 1.12 kg/ha alone): 80% | % Injury VL ([5]; Herbicide No.1 0.14 + No.12 3.36 kg/ha, no antidote): 70% | % Injury VL ([5]; Herbicide No.1 0.14 + No.12 3.36 kg/ha, no antidote (second such line, r25)): 60% | % Injury VL ([5]; Herbicide No.1 0.56 + No.12 3.36 kg/ha, no antidote (second such line, r24)): 75% | % Injury VL ([5]; Herbicide No.1 0.56 + No.12 (metolachlor) 3.36 kg/ha, no antidote): 85%
